Measurements taken from PubChem BioAssay AID2060342 (Molecular Pharmacology Branch, DTP, NCI, 2025).

Test system: 171881-019-R-J1-PDC multicell spheroid viability
Test: Anticancer human tumor 171881-019-R-J1-PDC patient-derived invasive breast carcinoma cell line growth inhibition [IpAb]
Conditions: for IC50: curve of first compound; for viability, T/C: stronger effect = lower value; active means viability on the fitted dose curve at most 10% of control; inactive means the rest
How it was run: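 Spheroids of 60% malignant cells, 25% HUVEC and 15% MSC were exposed to targeted agents combined with ipatasertib or abemaciclib. Doses started at or near clinical Cmax (10 microM when unknown) and fell in half-log steps.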

[1] = second compound 0.01 µM, first compound 0.0316 µM
[2] = second compound 0.01 µM, first compound 0.1 µM
[3] = second compound 0.01 µM, first compound 0.316 µM
[4] = second compound 0.01 µM, first compound 1 µM
[5] = second compound 0.01 µM, first compound 3.16 µM
[6] = second compound 0.01 µM, first compound 10 µM
[7] = second compound 0.0316 µM, first compound 0.0316 µM
[8] = second compound 0.0316 µM, first compound 0.1 µM
[9] = second compound 0.0316 µM, first compound 0.316 µM
[10] = second compound 0.0316 µM, first compound 1 µM
[11] = second compound 0.0316 µM, first compound 3.16 µM
[12] = second compound 0.0316 µM, first compound 10 µM
[13] = second compound 0.1 µM, first compound 0.0316 µM
[14] = second compound 0.1 µM, first compound 0.1 µM
[15] = second compound 0.1 µM, first compound 0.316 µM
[16] = second compound 0.1 µM, first compound 1 µM
[17] = second compound 0.1 µM, first compound 3.16 µM
[18] = second compound 0.1 µM, first compound 10 µM
[19] = second compound 0.316 µM, first compound 0.0316 µM
[20] = second compound 0.316 µM, first compound 0.1 µM
[21] = second compound 0.316 µM, first compound 0.316 µM
[22] = second compound 0.316 µM, first compound 1 µM
[23] = second compound 0.316 µM, first compound 3.16 µM
[24] = second compound 0.316 µM, first compound 10 µM
[25] = second compound 1 µM, first compound 0.0316 µM
[26] = second compound 1 µM, first compound 0.1 µM
[27] = second compound 1 µM, first compound 0.316 µM
[28] = second compound 1 µM, first compound 1 µM
[29] = second compound 1 µM, first compound 3.16 µM
[30] = second compound 1 µM, first compound 10 µM
[31] = second compound 0.01 µM, first compound 0.00949 µM
[32] = second compound 0.01 µM, first compound 0.03 µM
[33] = second compound 0.01 µM, first compound 0.0949 µM
[34] = second compound 0.01 µM, first compound 0.3 µM
[35] = second compound 0.0316 µM, first compound 0.00949 µM
[36] = second compound 0.0316 µM, first compound 0.03 µM
[37] = second compound 0.0316 µM, first compound 0.0949 µM
[38] = second compound 0.0316 µM, first compound 0.3 µM
[39] = second compound 0.1 µM, first compound 0.00949 µM
[40] = second compound 0.1 µM, first compound 0.03 µM
[41] = second compound 0.1 µM, first compound 0.0949 µM
[42] = second compound 0.1 µM, first compound 0.3 µM
[43] = second compound 0.316 µM, first compound 0.00949 µM
[44] = second compound 0.316 µM, first compound 0.03 µM
[45] = second compound 0.316 µM, first compound 0.0949 µM
[46] = second compound 0.316 µM, first compound 0.3 µM
[47] = second compound 1 µM, first compound 0.00949 µM
[48] = second compound 1 µM, first compound 0.03 µM
[49] = second compound 1 µM, first compound 0.0949 µM
[50] = second compound 1 µM, first compound 0.3 µM
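Further: spheroids exposed to the agents for seven days before readout.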

C=CC(=O)N1CCN(c2nc(=O)n(-c3c(C)ccnc3C(C)C)c3nc(-c4c(O)cccc4F)c(F)cc23)C(C)C1 (stereo not given) + CCN1CCN(Cc2ccc(Nc3ncc(F)c(-c4cc(F)c5nc(C)n(C(C)C)c5c4)n3)nc2)CC1
9500 nM: IC50 (second compound 0.0316 µM)
> 10000 nM: IC50 (second compound 0.1 µM) | IC50 (second compound 0.316 µM) | IC50 (second compound 1 µM)
inactive: viability, T/C [1] 103% | viability, T/C [2] 90.1% | viability, T/C [3] 89.5% | viability, T/C [4] 94.8% | viability, T/C [5] 97.5% | viability, T/C [6] 41.6% | viability, T/C [7] 99.1% | viability, T/C [8] 94.1% | viability, T/C [9] 104% | viability, T/C [10] 90.6% | viability, T/C [11] 91.5% | viability, T/C [12] 47.7% | viability, T/C [13] 117% | viability, T/C [14] 128% | viability, T/C [15] 114% | viability, T/C [16] 108% | viability, T/C [17] 105% | viability, T/C [18] 49.7% | viability, T/C [19] 136% | viability, T/C [20] 132% | viability, T/C [21] 132% | viability, T/C [22] 131% | viability, T/C [23] 114% | viability, T/C [24] 59.7% | viability, T/C [25] 148% | viability, T/C [26] 148% | viability, T/C [27] 149% | viability, T/C [28] 143% | viability, T/C [29] 127% | viability, T/C [30] 76.6%
8350 nM: IC50 (second compound 0.01 µM)

CC(=O)c1c(C)c2cnc(Nc3ccc(N4CCNCC4)cn3)nc2n(C2CCCC2)c1=O + CCN1CCN(Cc2ccc(Nc3ncc(F)c(-c4cc(F)c5nc(C)n(C(C)C)c5c4)n3)nc2)CC1
inactive: viability, T/C (second compound 0.01 µM, first compound 0.000949 µM) 98% | viability, T/C (second compound 0.01 µM, first compound 0.003 µM) 90.7% | viability, T/C [31] 77% | viability, T/C [32] 94.4% | viability, T/C [33] 105% | viability, T/C [34] 107% | viability, T/C (second compound 0.0316 µM, first compound 0.000949 µM) 107% | viability, T/C (second compound 0.0316 µM, first compound 0.003 µM) 96.6% | viability, T/C [35] 103% | viability, T/C [36] 110% | viability, T/C [37] 107% | viability, T/C [38] 109% | viability, T/C (second compound 0.1 µM, first compound 0.000949 µM) 119% | viability, T/C (second compound 0.1 µM, first compound 0.003 µM) 109% | viability, T/C [39] 115% | viability, T/C [40] 117% | viability, T/C [41] 115% | viability, T/C [42] 112% | viability, T/C (second compound 0.316 µM, first compound 0.000949 µM) 120% | viability, T/C (second compound 0.316 µM, first compound 0.003 µM) 136% | viability, T/C [43] 127% | viability, T/C [44] 122% | viability, T/C [45] 123% | viability, T/C [46] 122% | viability, T/C (second compound 1 µM, first compound 0.000949 µM) 144% | viability, T/C (second compound 1 µM, first compound 0.003 µM) 143% | viability, T/C [47] 142% | viability, T/C [48] 142% | viability, T/C [49] 140% | viability, T/C [50] 132%
> 300 nM: IC50 (second compound 0.01 µM) | IC50 (second compound 0.0316 µM) | IC50 (second compound 0.1 µM) | IC50 (second compound 0.316 µM) | IC50 (second compound 1 µM)

CC(C)(C)c1cnc(CSc2cnc(NC(=O)C3CCNCC3)s2)o1 + CCN1CCN(Cc2ccc(Nc3ncc(F)c(-c4cc(F)c5nc(C)n(C(C)C)c5c4)n3)nc2)CC1
174 nM: IC50 (second compound 0.01 µM)
inactive: viability, T/C [31] 104% | viability, T/C [32] 93.6% | viability, T/C [33] 114% | viability, T/C [35] 110% | viability, T/C [36] 99.8% | viability, T/C [37] 121% | viability, T/C [39] 116% | viability, T/C [40] 125% | viability, T/C [41] 138% | viability, T/C [43] 132% | viability, T/C [44] 126% | viability, T/C [45] 141% | viability, T/C [47] 148% | viability, T/C [48] 143% | viability, T/C [49] 118%
191 nM: IC50 (second compound 0.1 µM)
active: viability, T/C [34] 5.39% | viability, T/C (second compound 0.01 µM, first compound 0.949 µM) 0.26% | viability, T/C (second compound 0.01 µM, first compound 3 µM) 0.29% | viability, T/C [38] 3.9% | viability, T/C (second compound 0.0316 µM, first compound 0.949 µM) 0.25% | viability, T/C (second compound 0.0316 µM, first compound 3 µM) 0.36% | viability, T/C [42] 0.81% | viability, T/C (second compound 0.1 µM, first compound 0.949 µM) 0.47% | viability, T/C (second compound 0.1 µM, first compound 3 µM) 0.46% | viability, T/C [46] 1.4% | viability, T/C (second compound 0.316 µM, first compound 0.949 µM) 0.27% | viability, T/C (second compound 0.316 µM, first compound 3 µM) 0.57% | viability, T/C [50] 1.51% | viability, T/C (second compound 1 µM, first compound 0.949 µM) 0.68% | viability, T/C (second compound 1 µM, first compound 3 µM) 1.06%
185 nM: IC50 (second compound 1 µM)
182 nM: IC50 (second compound 0.0316 µM)
196 nM: IC50 (second compound 0.316 µM)

Cn1nccc1Nc1nccc(-c2ccn(C(CO)c3ccc(Cl)c(F)c3)c(=O)c2)n1 (stereo not given) + CCN1CCN(Cc2ccc(Nc3ncc(F)c(-c4cc(F)c5nc(C)n(C(C)C)c5c4)n3)nc2)CC1
929 nM: IC50 (second compound 0.1 µM)
1140 nM: IC50 (second compound 0.316 µM)
inactive: viability, T/C [1] 117% | viability, T/C [2] 112% | viability, T/C [3] 79.5% | viability, T/C [4] 41.6% | viability, T/C [5] 24.5% | viability, T/C [6] 18.5% | viability, T/C [7] 132% | viability, T/C [8] 122% | viability, T/C [9] 80.6% | viability, T/C [10] 43.2% | viability, T/C [11] 29.2% | viability, T/C [12] 19.7% | viability, T/C [13] 138% | viability, T/C [14] 113% | viability, T/C [15] 78.5% | viability, T/C [16] 47.4% | viability, T/C [17] 31.2% | viability, T/C [18] 20.9% | viability, T/C [19] 144% | viability, T/C [20] 122% | viability, T/C [21] 79.3% | viability, T/C [22] 52.2% | viability, T/C [23] 38.8% | viability, T/C [24] 26.5% | viability, T/C [25] 161% | viability, T/C [26] 129% | viability, T/C [27] 87.5% | viability, T/C [28] 61.5% | viability, T/C [29] 46.5% | viability, T/C [30] 32.7%
772 nM: IC50 (second compound 0.01 µM)
2970 nM: IC50 (second compound 1 µM)
810 nM: IC50 (second compound 0.0316 µM)
